Active and inactive are the calls of the source. The calls are words filed in the database; no cut-off is given here.
Experiments:
[1] = biological target: T1, Tyrosyl-DNA phosphodiesterase 1 (Homo sapiens, UniProt Q9NUW8); experiment: Inhibition of recombinant TDP1 (unknown origin) assessed as substrate cleavage using 5'-Cy5-GATCTAAAAGACTT-pY-3' DNA substrate measured after 15 mins by gel-based assay
HCT-116 [2] = experiment: Radiosensitizing activity in human HCT-116 cells assessed as induction of 2 GY ionizing radiation (IR) induced cell killing effect; assay type: functional, cell-based
HCT-116 [3] = experiment: Synergistic cytotoxicity against human HCT116 cells assessed as combination index at 5 uM incubated for 48 hrs in presence of 2GY ionizing radiation (IR); assay type: functional
[4] = Toxicity in human NCM460 cells assessed as 2GY ionizing radiation radiosensitisation mediated cell killing; assay type: cell-based
A549 = experiment: Radiosensitizing activity in human A549 cells assessed as sensitization of 2 GY ionizing radiation induced decrease in cell survival by colony formation assay; assay type: functional, cell-based
[5] = Cmax in male Sprague-Dawley rat at 1 mg/kg, iv measured up to 24 hrs by LCMS-MS analysis; assay type: ADME, organism-based; settings: in vivo
[6] = AUC infinity in male Sprague-Dawley rat at 1 mg/kg, iv measured up to 24 hrs by LCMS-MS analysis; assay type: ADME, organism-based; settings: in vivo
[7] = AUClast in male Sprague-Dawley rat at 5 mg/kg, IG measured up to 24 hrs by LCMS-MS analysis; assay type: ADME, organism-based; settings: in vivo, po
[8] = Half life in male Sprague-Dawley rat at 5 mg/kg, IG measured up to 24 hrs by LCMS-MS analysis; assay type: ADME, organism-based; settings: in vivo, po
HCT-116 [9] = experiment: In vivo radiosensitizing activity in human HCT-116 cells xenografted in BALB/c mouse assessed as sensitization of 1 GY ionizing radiation induced tumor growth inhibition at 1 mg/kg, ip every day for 14 days radiated for every 2 days once; assay type: functional, organism-based; settings: time 14.0 day
HCT-116 [10] = experiment: In vivo radiosensitizing activity in human HCT-116 cells xenografted in BALB/c mouse assessed as sensitization of 1 GY ionizing radiation induced tumor growth inhibition at 10 mg/kg, ip every day for 14 days radiated for every 2 days once; assay type: functional, organism-based; settings: time 14.0 day
[11] = Toxicity in BALB/c mouse xenografted with human HCT-116 cells assessed as change in body weight at 1 mg/kg, ip every day for 14 days; assay type: organism-based; settings: in vivo, 336 h, time 14 day
[12] = Toxicity in BALB/c mouse xenografted with human HCT-116 cells assessed as change in body weight at 10 mg/kg, ip every day for 14 days; assay type: organism-based; settings: in vivo, 336 h, time 14 day
[13] = Toxicity in BALB/c mouse xenografted with human HCT-116 cells assessed as change in spleen weight at 1 to 10 mg/kg, ip every day for 14 days; assay type: organism-based; settings: in vivo, 336 h, dose 1-10 mg/kg, time 14 day
[14] = Toxicity in BALB/c mouse xenografted with human HCT-116 cells assessed as change in kidney weight at 1 to 10 mg/kg, ip every day for 14 days; assay type: organism-based; settings: in vivo, 336 h, dose 1-10 mg/kg, time 14 day
[15] = Toxicity in BALB/c mouse xenografted with human HCT-116 cells assessed as change in liver weight at 1 to 10 mg/kg, ip every day for 14 days radiated for every 2 days once; assay type: organism-based; settings: in vivo, 336 h, dose 1-10 mg/kg, time 14 day
[16] = biological target: T1, Tyrosyl-DNA phosphodiesterase 1; experiment: Binding affinity to TDP1 in human HCT-116 cells assessed as increase in thermal stability by Cellular Thermal Shift Assay (CETSA); assay type: cell-based
[17] = biological target: T1, Tyrosyl-DNA phosphodiesterase 1; experiment: Inhibition of TDP1 in human SgTDP1-HCT-116 cells (TDP1 knockout) at 1.11 mM; assay type: cell-based
HCT-116 [18] = experiment: Synergistic cytotoxicity against human SgTDP1-HCT-116 cells (TDP1 knockout) assessed as combination index at 1 uM incubated for 48 hrs in presence of 2GY ionizing radiation; assay type: functional
HCT-116 [19] = experiment: Reduction of XRCC4 expression in wild type human HCT-116 cells assessed as reduction in mRNA level at 5 to 10 uM radiated with 4 GY ionizing radiation (IR) measured after 24 hrs by qRT-PCR analysis; assay type: functional, cell-based; settings: dose 5-10 µM
HCT-116 [20] = experiment: Induction of gamma-H2AX level in human HCT-116 cells at 5 uM measured after 3 hrs by Western blot analysis; assay type: functional, cell-based
HCT-116 [21] = experiment: Induction of ionizing radiation (IR) induced gamma-H2AX level in human HCT-116 cells at 5 uM measured after 3 hrs by Western blot analysis; assay type: functional, cell-based
HCT-116 [22] = experiment: Induction of PIG3 transcription level in human HCT-116 cells measured after 24 hrs; assay type: functional, cell-based
HCT-116 [23] = experiment: Induction of ROS generation in human HCT-116 cells assessed as fold increase in intracellular ROS level at 10 uM under […] ionizing radiation (IR) measured after 20 mins by ELIASA analysis; assay type: functional
HCT-116 [24] = experiment: Induction of 4GY ionizing radiation (IR) induced ROS production in human HCT-116 cells assessed as mitochondrial dysfunction by measuring mitochondrial membrane potential loss at 10 uM measured after 24 hrs by JC-1 staining analysis; assay type: functional, cell-based
HCT-116 [25] = experiment: Induction of cell cycle arrest in human HCT-116 cells assessed as accumulation of cells at G2/M phase at 10 uM measured after 24 hrs by Propidium iodide (PI) staining based assay (reference value: 15.77%); assay type: functional
[26] = Induction of 4GY ionizing radiation (IR) induced cell cycle arrest in human HCT-116 cells assessed as accumulation of cells at G2/M phase at 5 uM measured after 24 hrs by Propidium iodide (PI) staining based assay (reference value: 20.51%); assay type: functional
[27] = Induction of 4GY ionizing radiation (IR) induced cell cycle arrest in human HCT-116 cells assessed as accumulation of cells at S phase at 10 uM measured after 24 hrs by Propidium iodide (PI) staining based assay (reference value: 11.48%); assay type: functional
HCT-116 [28] = experiment: Induction of apoptosis in human HCT-116 cells assessed as early apoptotic cells at 10 uM measured after 24 hrs by FITC Annexin V/PI apoptosis detection assay (reference value: 0.26%); assay type: functional
HCT-116 [29] = experiment: Induction of apoptosis in human HCT-116 cells assessed as late apoptotic cells at 5 uM measured after 24 hrs by FITC Annexin V/PI apoptosis detection assay (reference value: 0%); assay type: functional
HCT-116 [30] = experiment: Induction of 4GY ionizing radiation (IR) induced apoptosis in human HCT-116 cells assessed as late apoptotic cells at 5 uM measured after 24 hrs by FITC Annexin V/PI apoptosis detection assay (reference value: 14.32%); assay type: functional
HCT-116 [31] = experiment: Induction of 4GY ionizing radiation (IR) induced apoptosis in human HCT-116 cells assessed as late apoptotic cells at 10 uM measured after 24 hrs by FITC Annexin V/PI apoptosis detection assay (reference value: 14.32%); assay type: functional
HCT-116 [32] = experiment: Induction of 4GY ionizing radiation (IR) induced apoptosis in human HCT-116 cells measured after 24 hrs by TUNEL staining based analysis; assay type: functional, cell-based; settings: dose 5-10 µM
HCT-116 [33] = experiment: Induction of apoptosis in human HCT-116 cells assessed as induction of 4GY ionizing radiation (IR) induced cleaved PARP at 5 uM measured after 24 hrs by Western blot analysis; assay type: functional, cell-based
HCT-116 [34] = experiment: Induction of apoptosis in human HCT-116 cells assessed as induction of 4GY ionizing radiation (IR) induced cleaved Caspase-3 at 5 uM measured after 24 hrs by Western blot analysis; assay type: functional, cell-based

T1 sequence (Q9NUW8 whole entry): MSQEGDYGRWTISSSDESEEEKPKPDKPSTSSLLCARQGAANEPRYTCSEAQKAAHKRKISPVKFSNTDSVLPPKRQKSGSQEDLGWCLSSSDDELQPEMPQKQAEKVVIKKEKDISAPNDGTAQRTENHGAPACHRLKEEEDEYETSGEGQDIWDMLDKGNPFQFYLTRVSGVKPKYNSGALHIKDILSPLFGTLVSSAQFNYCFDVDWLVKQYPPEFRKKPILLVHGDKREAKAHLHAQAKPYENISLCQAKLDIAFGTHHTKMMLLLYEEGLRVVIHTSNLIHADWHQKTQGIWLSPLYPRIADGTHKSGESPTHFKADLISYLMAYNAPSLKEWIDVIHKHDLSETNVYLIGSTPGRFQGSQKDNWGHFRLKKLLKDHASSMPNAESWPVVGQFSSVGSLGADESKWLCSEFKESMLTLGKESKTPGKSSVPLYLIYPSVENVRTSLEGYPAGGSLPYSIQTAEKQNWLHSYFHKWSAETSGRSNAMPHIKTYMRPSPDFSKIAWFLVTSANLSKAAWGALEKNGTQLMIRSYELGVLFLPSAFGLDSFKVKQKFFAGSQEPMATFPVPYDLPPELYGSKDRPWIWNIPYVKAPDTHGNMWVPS

Structure (SMILES): COc1cc2c(=O)n(CCN(C)C)c3c4cc5c(cc4ccc3c2cc1OCCN1CCOCC1)OCO5
- IC50 [1]: 7.8 µM
- Activity (HCT-116 [2]): Active
- CI (HCT-116 [3]): <0.3
- Activity [4]: Non-toxic
- Activity (A549): inactive
- Cmax [5]: 221 ng/mL
- AUC(0-inf) [6]: 291 ng·h/mL
- AUC(0-t) at 24 h [7]: 779 ng·h/mL
- half-life [8]: 4.64 h
- TGI (HCT-116 [9]): Active
- TGI (HCT-116 [10]): Active
- Activity [11]: Non-toxic
- Activity [12]: Non-toxic
- Activity [13]: Non-toxic
- Activity [14]: Non-toxic
- Activity [15]: Non-toxic
- Activity [16]: Active; Thermal Melting Curve Of Tdp1 Protein Shifted Left
- inhibition [17]: inactive
- CI (HCT-116 [18]): 0.46
- Activity (HCT-116 [19]): Active
- Activity (HCT-116 [20]): Active
- Activity (HCT-116 [21]): Active
- Activity (HCT-116 [22]): Dose-dependent-effect
- fold change (FC) (HCT-116 [23]): 2.1
- Activity (HCT-116 [24]): Active
- Activity (HCT-116 [25]): 25.64%
- Activity [26]: 43.13%
- Activity [27]: 12.88%
- Activity (HCT-116 [28]): 13.24%
- Activity (HCT-116 [29]): 5.99%
- Activity (HCT-116 [30]): 18.62%
- Activity (HCT-116 [31]): 23.04%
- Activity (HCT-116 [32]): Dose-dependent-effect
- Activity (HCT-116 [33]): Active
- Activity (HCT-116 [34]): Active

From ChEMBL document CHEMBL6134907, “Synthesis of 5,9- and 5,8-Diaminoalkoxy Substituted Benzophenanthridinone Analogues as Tyrosyl-DNA Phosphodiesterase 1 Inhibitors and Their Radiosensitizing Activity” (J Med Chem, 2025)
